Assay type in all cases: cell-based
Series [1] has as its system recombinant NL4-3 virus (Renilla luciferase) in MT-2 cells. The series can be described thus: HIV cell culture assay (antiviral activity, luciferase readout). In outline: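 Antiviral EC50 was derived via the median effect equation from luciferase signal. The signal came from MT-2 cultures infected for 4–5 days with a nef-deleted, Renilla luciferase-expressing NL4-3 reporter virus (made in 293T cells) in the presence of compound dilutions.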

Series [2] in a line: Compound cytotoxicity, XTT-based colorimetric assay. The following applies: human; uninfected MT2 cells, day 4, XTT. In outline:
(§1)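 Run under the antiviral-assay protocol but without virus. Viability was read on day 4 and CC50 values were derived from the readout.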
A general note: Tetrazolium dyes change colour on reduction, which living cells bring about.

The test system of another series is uninfected MT2 cells. Described as above. Conditions: day 4, XTT. In outline:
as §1

Molecules are shown by their SMILES. Where two headings read alike, the source gives them in different places.

Take `Cc1nccc(-c2ccc3c(=O)n(-c4ccc(Cl)c5c(NS(C)(=O)=O)nn(C)c45)c([C@H](Cc4cc(F)cc(F)c4)NC(=O)Cn4nc(C(F)F)c5c4C(F)(F)[C@@H]4C[C@H]54)nc3c2)n1` [Example 10, N—((S)-1-((3P)-3-(4-chloro-1-methyl-3-(methylsulfonamido)-1H-indazol-7-yl)-7-(2-methylpyrimidin-4-yl)-4-oxo-3,4-dihydroquinazolin-2-yl)-2-(3,5-difluorophenyl)ethyl)-2-((3bS,4aR)-3-(difluoromethyl)-5,5-difluoro-3b,4,4a,5-tetrahydro-1H-cyclopropa[3,4]cyclopenta[1,2-c]pyrazol-1-yl)acetamide]: the EC50 (commonly the concentration at which the effect is half-maximal) in series [1] (Renilla, NL43) is 42 pM. For the same compound, the CC50 (as a rule, the concentration at which the toxic effect on the cells reaches its halfway point) at 4 days in series [2] is greater than 500000 pM.

`CN(c1cccc(-c2ccc3c(=O)n(-c4ccc(Cl)c5c(NS(C)(=O)=O)nn(C)c45)c([C@H](Cc4cc(F)cc(F)c4)NC(=O)Cn4nc(C(F)F)c5c4C(F)(F)[C@@H]4C[C@H]54)nc3c2)c1)S(C)(=O)=O` [Example 28, N—((S)-1-((3P)-3-(4-chloro-1-methyl-3-(methylsulfonamido)-1H-indazol-7-yl)-7-(3-(N-methylmethylsulfonamido)phenyl)-4-oxo-3,4-dihydroquinazolin-2-yl)-2-(3,5-difluorophenyl)ethyl)-2-((3bS,4aR)-3-(difluoromethyl)-5,5-difluoro-3b,4,4a,5-tetrahydro-1H-cyclopropa[3,4]cyclopenta[1,2-c]pyrazol-1-yl)acetamide]: the EC50 in series [1] (Renilla, NL43) turned out to be 220 pM. The compound also displayed a CC50 at 4 days in series [2] greater than 500000 pM.

On to `CN(c1ccc(-c2ccc3c(=O)n(-c4ccc(Cl)c5c(NS(C)(=O)=O)nn(C)c45)c([C@H](Cc4cc(F)cc(F)c4)NC(=O)Cn4nc(C(F)F)c5c4C(F)(F)[C@@H]4C[C@H]54)nc3c2)cc1)S(C)(=O)=O` [Example 29, N—((S)-1-((3P)-3-(4-chloro-1-methyl-3-(methylsulfonamido)-1H-indazol-7-yl)-7-(4-(N-methylmethylsulfonamido)phenyl)-4-oxo-3,4-dihydroquinazolin-2-yl)-2-(3,5-difluorophenyl)ethyl)-2-((3bS,4aR)-3-(difluoromethyl)-5,5-difluoro-3b,4,4a,5-tetrahydro-1H-cyclopropa[3,4]cyclopenta[1,2-c]pyrazol-1-yl)acetamide], for which the EC50 in series [1] (Renilla, NL43) is 290 pM. This compound also gave a CC50 at 4 days in series [2] greater than 500000 pM.

For the compound `Cn1nc(NS(C)(=O)=O)c2c(Cl)ccc(-n3c([C@H](Cc4cc(F)cc(F)c4)NC(=O)Cn4nc(C(F)F)c5c4C(F)(F)[C@@H]4C[C@H]54)nc4cc(-c5ccccc5S(=O)(=O)C(C)(C)C)ccc4c3=O)c21` [Example 32, N—((S)-1-(7-(2-(tert-butylsulfonyl)phenyl)-(3P)-3-(4-chloro-1-methyl-3-(methylsulfonamido)-1H-indazol-7-yl)-4-oxo-3,4-dihydroquinazolin-2-yl)-2-(3,5-difluorophenyl)ethyl)-2-((3bS,4aR)-3-(difluoromethyl)-5,5-difluoro-3b,4,4a,5-tetrahydro-1H-cyclopropa[3,4]cyclopenta[1,2-c]pyrazol-1-yl)acetamide], the EC50 in series [1] (Renilla, NL43) was 110 pM. Moreover, the CC50 at 4 days in series [2] was greater than 500000 pM.

As for `Cc1cc(C(F)(F)F)nc(-c2ccc3c(=O)n(-c4ccc(Cl)c5c(NS(C)(=O)=O)nn(C)c45)c([C@H](Cc4cc(F)cc(F)c4)NC(=O)Cn4nc(C(F)F)c5c4C(F)(F)[C@@H]4C[C@H]54)nc3c2)n1` [Example 53, N—((S)-1-((3P)-3-(4-chloro-1-methyl-3-(methylsulfonamido)-1H-indazol-7-yl)-7-(4-methyl-6-(trifluoromethyl)pyrimidin-2-yl)-4-oxo-3,4-dihydroquinazolin-2-yl)-2-(3,5-difluorophenyl)ethyl)-2-((3bS,4aR)-3-(difluoromethyl)-5,5-difluoro-3b,4,4a,5-tetrahydro-1H-cyclopropa[3,4]cyclopenta[1,2-c]pyrazol-1-yl)acetamide], the EC50 in series [1] (Renilla, NL43) is 160 pM. Besides, in series [2], the CC50 at 4 days is greater than 500000 pM.

For the compound `CCC(C)c1nccc(-c2ccc3c(=O)n(-c4ccc(Cl)c5c(NS(C)(=O)=O)nn(C)c45)c([C@H](Cc4cc(F)cc(F)c4)NC(=O)Cn4nc(C(F)F)c5c4C(F)(F)[C@@H]4C[C@H]54)nc3c2)n1` (stereo partly drawn) [Example 70, N-((1S)-1-(7-(2-(sec-butyl)pyrimidin-4-yl)-(3P)-3-(4-chloro-1-methyl-3-(methylsulfonamido)-1H-indazol-7-yl)-4-oxo-3,4-dihydroquinazolin-2-yl)-2-(3,5-difluorophenyl)ethyl)-2-((3bS,4aR)-3-(difluoromethyl)-5,5-difluoro-3b,4,4a,5-tetrahydro-1H-cyclopropa[3,4]cyclopenta[1,2-c]pyrazol-1-yl)acetamide], in series [1] (Renilla, NL43), the EC50 was found to be 260 pM. The CC50 at 4 days in series [2] is greater than 500000 pM.

As to `CS(=O)(=O)Nc1nn(CC(F)F)c2c(-n3c([C@H](Cc4cc(F)cc(F)c4)NC(=O)Cn4nc(C(F)F)c5c4C(F)(F)[C@@H]4C[C@H]54)nc4cc(-c5cccc(C(F)(F)F)n5)ccc4c3=O)ccc(Cl)c12` [Example 138, N-[(1S)-1-{3-[4-chloro-1-(2,2-difluoroethyl)-3-methanesulfonamido-1H-indazol-7-yl]-4-oxo-7-(trifluoromethyppyridin-2-yl]-3,4-dihydroquinazolin-2-yl}-2-(3,5-difluorophenyl)ethyl]-2-[(2S,4R)-9-(difluoromethyl)-5,5-difluoro-7,8-diazatricyclo[4.3.0.0^2,^4]nona-1(6),8-dien-7-yl]acetamide], in series [1] (Renilla, NL43), the EC50 is 79 pM. The same compound registered a CC50 at 4 days in series [2] greater than 500000 pM.

In the case of `CC(C)(C)S(=O)(=O)c1cccc(-c2ccc3c(=O)n(-c4ccc(Cl)c5c(NS(=O)(=O)C6CC6)nn(CC(F)F)c45)c([C@H](Cc4cc(F)cc(F)c4)NC(=O)Cn4nc(C(F)F)c5c4C(F)(F)[C@@H]4C[C@H]54)nc3c2)c1` [Example 146, N-[(1S)-1-{3-[4-chloro-3-cyclopropanesulfonamido-1-(2,2-difluoroethyl)-1H-indazol-7-yl]-7-[3-(2-methylpropane-2-sulfonyl)phenyl]-4-oxo-3,4-dihydroquinazolin-2-yl}-2-(3,5-difluorophenyl)ethyl]-2-[(2S,4R)-9-(difluoromethyl)-5,5-difluoro-7,8-diazatricyclo[4.3.0.0^2,^4]nona-1(6),8-dien-7-yl]acetamide], the EC50 in series [1] (MT-2 cells infected for 4-5 days with recombinant NL4-3 Renilla luciferase virus, luciferase activity, read-out: EC50) amounted to 390 pM. In the series on uninfected MT2 cells, this compound returned a CC50 greater than 500000 pM.

These data come from patent publication US11541055B2, “Inhibitors of human immunodeficiency virus replication” (ViiV Healthcare UK (No. 5) LIMITED, priority 2018, dated 2023).
